Reference: ChEMBL document CHEMBL1201862, “PubChem BioAssay data set” (2004)
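Step 1: Grow cells in 96-well plates. Step 2: Expose to compound for 48 hours at 5 concentrations. Step 3: Interpolate endpoints linearly; if unreached, use highest concentration. Abbreviation: GI50, concentration required for 50% inhibition of growth.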 Activity calls are given as the source filed them. Cut-off read from the data, not from the text of the source: active = GI50 up to about 1.1 µM and inactive = higher.

What was measured:
Assay in all cases: inhibition of tumour cell growth, NCI panel, 48 h
SW-620 = test system: SW-620
Malme-3M = test system: Malme-3M
A549 = test system: A549
SNB-19 = test system: SNB-19
SF-268 = test system: SF-268
HL-60 = test system: HL-60
SF-539 = test system: SF-539
HCT-116 = test system: HCT-116
NCI-H460 = test system: NCI-H460
UACC-62 = test system: UACC-62
SN12C = test system: SN12C
M14 = test system: M14
SR = test system: SR
K562 = test system: K562
EKVX = test system: EKVX
RXF 393 = test system: RXF 393

| SMILES | GI50 (SW-620) | GI50 (Malme-3M) | GI50 (A549) | GI50 (SNB-19) | GI50 (SF-268) | GI50 (HL-60) | GI50 (SF-539) | GI50 (HCT-116) | GI50 (NCI-H460) | GI50 (UACC-62) | GI50 (SN12C) | GI50 (M14) | GI50 (SR) | GI50 (K562) | GI50 (EKVX) | GI50 (RXF 393) |
| --- | --- | --- | --- | --- | --- | --- | --- | --- | --- | --- | --- | --- | --- | --- | --- | --- |
| O=C(COc1ccccc1Cl)N1N=C(c2ccccc2)CC1(O)c1ccccc1 (stereo unspecified) | 26.5 µM (inactive) | 14.9 µM (inactive) | 16.9 µM (inactive) | 16.4 µM (inactive) | 24.6 µM (inactive) | 9.42 µM (inactive) | 18.9 µM (inactive) | 16.4 µM (inactive) | 18 µM (inactive) | 12.8 µM (inactive) | 12.9 µM (inactive) | 17 µM (inactive) | 4.61 µM (inactive) | 14.3 µM (inactive) |  |  |
| Cc1cc(C(O)CCCc2ccccc2)cc(C)c1O (stereo unspecified) | 75.7 µM (inactive) | 18.9 µM (inactive) | 32.7 µM (inactive) | 14.6 µM (inactive) | 28.4 µM (inactive) | 16.6 µM (inactive) | 38.2 µM (inactive) |  | 36.6 µM (inactive) | 35.9 µM (inactive) | 41.8 µM (inactive) | 56.1 µM (inactive) |  | 28.6 µM (inactive) | 20.5 µM (inactive) | 12 µM (inactive) |
| O=C(Nc1nc2ncn(CCOC(=O)c3ccccc3)c2c(=S)[nH]1)c1ccccc1 | > 100 µM (inactive) | 42.5 µM (inactive) | 66.2 µM (inactive) | 71.9 µM (inactive) | 13.5 µM (inactive) | > 100 µM (inactive) | 30.5 µM (inactive) | > 100 µM (inactive) | 48.1 µM (inactive) | 56.2 µM (inactive) | > 100 µM (inactive) | > 100 µM (inactive) |  | 60.8 µM (inactive) | > 100 µM (inactive) | 18.6 µM (inactive) |
| Nc1ccc(C2=N/C(=C\c3cccc(N)c3)C(=O)O2)cc1 | > 100 µM (inactive) | > 100 µM (inactive) | > 100 µM (inactive) | > 100 µM (inactive) | > 100 µM (inactive) | 57.5 µM (inactive) | > 100 µM (inactive) |  |  | > 100 µM (inactive) | > 100 µM (inactive) | > 100 µM (inactive) | > 100 µM (inactive) | > 100 µM (inactive) | > 100 µM (inactive) | > 100 µM (inactive) |
| CN(C)CCNC(=O)c1cccc2cc3c(Cl)cccc3nc12 | 0.641 µM (active) | 0.865 µM (active) | 0.556 µM (active) | 1.71 µM (inactive) |  |  | 0.873 µM (active) | 0.601 µM (active) |  | 1.69 µM (inactive) | 1.07 µM (active) | 2.12 µM (inactive) | 0.308 µM (active) | 0.946 µM (active) | 2.35 µM (inactive) | 1.7 µM (inactive) |
| CCOC(=O)C1(Cc2ccc3ccccc3c2)CCCCCN1 (stereo unspecified) | 24.5 µM (inactive) | 16.5 µM (inactive) | 52.4 µM (inactive) | 43.7 µM (inactive) | 58.5 µM (inactive) | 18.8 µM (inactive) |  |  | 18.4 µM (inactive) | 46.3 µM (inactive) | 29.4 µM (inactive) | 20 µM (inactive) |  | 22.8 µM (inactive) | 69.5 µM (inactive) | 20.4 µM (inactive) |
| O=C(N/N=C1\C(=O)N(c2nccs2)C(=O)C(=O)C1c1nc2ccccc2s1)c1ccccc1O (stereo unspecified) | 47.9 µM (inactive) | > 100 µM (inactive) | 52.1 µM (inactive) | 60 µM (inactive) | 12.1 µM (inactive) | 36.7 µM (inactive) | 28.1 µM (inactive) | 29.9 µM (inactive) | 53.3 µM (inactive) | 31.3 µM (inactive) | 39.1 µM (inactive) | > 100 µM (inactive) |  | 19.7 µM (inactive) | > 100 µM (inactive) | 21.1 µM (inactive) |
| O=C(CC(=O)C1=CNc2ccccc2S1)C(=O)Nc1ccc(Cl)cc1 | > 50 µM (inactive) | > 50 µM (inactive) | > 50 µM (inactive) | > 50 µM (inactive) | > 50 µM (inactive) | > 34 µM (inactive) | > 50 µM (inactive) | > 50 µM (inactive) | > 50 µM (inactive) | > 50 µM (inactive) | > 50 µM (inactive) | > 50 µM (inactive) |  | > 24.3 µM (inactive) | > 50 µM (inactive) | > 50 µM (inactive) |
| c1ccc([P+](c2ccccc2)(c2ccccc2)C2Sc3ccccc3S2)cc1 | > 100 µM (inactive) | 13.9 µM (inactive) | 15 µM (inactive) | 27.7 µM (inactive) | 17.2 µM (inactive) | 5.96 µM (inactive) | 18.3 µM (inactive) | 12.8 µM (inactive) | 23.3 µM (inactive) | 13.8 µM (inactive) | 16.6 µM (inactive) | 15.3 µM (inactive) |  | 16.9 µM (inactive) | 22.9 µM (inactive) | 14.9 µM (inactive) |
| CCOC(=O)c1cn(CC)c2cc3c(cc2c1=O)SCS3 | > 100 µM (inactive) | > 100 µM (inactive) | > 100 µM (inactive) | > 100 µM (inactive) | > 100 µM (inactive) | > 100 µM (inactive) | > 100 µM (inactive) |  | > 100 µM (inactive) | > 100 µM (inactive) | > 100 µM (inactive) | > 100 µM (inactive) |  | > 100 µM (inactive) | > 100 µM (inactive) | > 100 µM (inactive) |
| CCCCCCCCCCCCCCCCc1c(O)nc(NC#N)nc1C(=O)OC | > 25 µM (inactive) | > 25 µM (inactive) | > 25 µM (inactive) | > 25 µM (inactive) | > 25 µM (inactive) | > 25 µM (inactive) | > 25 µM (inactive) | > 25 µM (inactive) | > 25 µM (inactive) |  | > 25 µM (inactive) | > 25 µM (inactive) |  | > 25 µM (inactive) | > 25 µM (inactive) | > 25 µM (inactive) |
| CN/N=C(/Cc1occc(=O)c1O)C(=O)Nc1ccccc1C | > 100 µM (inactive) | > 100 µM (inactive) | > 100 µM (inactive) | > 100 µM (inactive) | > 100 µM (inactive) | > 100 µM (inactive) | > 100 µM (inactive) | > 100 µM (inactive) | > 100 µM (inactive) | > 100 µM (inactive) | > 100 µM (inactive) | > 100 µM (inactive) | > 100 µM (inactive) | > 100 µM (inactive) | > 100 µM (inactive) |  |
| Cc1ccc(/N=N/c2c(C)nn(-c3ccccc3)c2C)c(Br)c1 | 70.8 µM (inactive) | > 100 µM (inactive) | > 100 µM (inactive) | > 100 µM (inactive) | > 100 µM (inactive) | 6.84 µM (inactive) | > 100 µM (inactive) | 41.3 µM (inactive) | 62.8 µM (inactive) | 89.9 µM (inactive) | > 100 µM (inactive) | > 100 µM (inactive) |  | 27.3 µM (inactive) | > 100 µM (inactive) | 54 µM (inactive) |
| CC1CN1c1c(C(=O)/C=C/c2ccc(Cl)cc2)c(-c2ccccc2)nn(C)c1=O (stereo unspecified) | 2.44 µM (inactive) | 8.97 µM (inactive) | 4.42 µM (inactive) | 9.71 µM (inactive) | 3.98 µM (inactive) | 2.23 µM (inactive) | 1.94 µM (inactive) | 2.52 µM (inactive) | 2.28 µM (inactive) | 2.32 µM (inactive) | 3.11 µM (inactive) | 1.95 µM (inactive) |  | 2.82 µM (inactive) | 3.63 µM (inactive) | 3.01 µM (inactive) |
